In general, CC50 refers to the concentration giving 50% cytotoxicity. Low values mean harm at low concentration, high ones better tolerance by the cells. Usually IC50 stands for the concentration that inhibits the measured activity by half.

Series [1] is described as follows: Cytotoxicity on L929 cells (alamarBlue). The class given is cell-based. To be noted: mouse, L929 fibroblasts (infected with T. cruzi), 96-hour exposure. As for the experimental part:
(§1) Because the amount of beta-galactosidase is directly proportional to the number of parasites, trypanocidal activity was assessed by measuring the decrease in beta-galactosidase activity in the treated cultures compared to the infected control culture without treatment. To determine the cytotoxicity of the compounds on L929 cells, absorbance was measured at two wavelengths (570 and 600 nm) after 4-6 hours of incubation with alamarBlue® reagent (Invitrogen Corporation, USA). Cytotoxicity was evaluated by analyzing the difference in reagent reduction between treated cells (TC) and untreated cells (UT) using an equation provided by the manufacturer of alamarBlue®: […]
(§2) Half-maximum inhibitory concentration (IC50) and half-maximum cytotoxicity concentration (CC50) values were determined through linear interpolation[45] using Excel software (Microsoft Corporation, USA). The assay was conducted in triplicate, and the results are expressed as the percentage inhibition of parasite growth Cytotoxicity assay.
In vitro cytotoxicity assessments of the compounds were performed using AlamarBlue®. The cells and experimental conditions mirrored those used for the trypanocidal assay. After a 96-hour exposure of mouse L929 fibroblasts infected with T. cruzi to the test compounds, alamarBlue® was added, and absorbance was measured after an additional 4-6-hour incubation. IC50 values were determined by linear interpolation, and the selectivity index (SI) was calculated as the ratio of CC50 (the concentration causing 50% cytotoxicity) to IC50 (the concentration causing 50% parasitic inhibition). Benznidazole served as the positive control for comparative analysis.
Background: Resazurin is reduced to fluorescent resorufin, in cell work by metabolically active cells.

The test system of series [2] is intracellular amastigotes of Trypanosoma cruzi Tulahuen transfected with β-galactosidase strain. Nature of the series: In vitro trypanocidal activity, β-galactosidase-expressing T. cruzi in L929 fibroblasts. The format is cell-based. To be noted: for IC50: intracellular amastigotes, Tulahuen β-galactosidase strain, 96 hours of exposition; for Selectivity index (SI): CC50 (L929)/IC50 (T. cruzi Tulahuen). As for the experimental part: The in vitro assays were conducted at the Centro de Pesquisas René Rachou-Fiocruz (FIOCRUZ-MINAS), Minas Gerais, Brazil. To evaluate trypanocidal activity, initial in vitro screening was performed following the protocols described by Buckner et al.[43] and Romanha et al.. In this assay, Tulahuen T. cruzi strain expressing β-galactosidase trypomastigotes and intracellular amastigotes were cultured in mouse L929 fibroblasts in RPMI1640 medium without phenol red and containing 10% fetal bovine serum. Tissue culture microplates with L929 fibroblasts were incubated overnight at 37°C with 5% CO2. Subsequently, the Tulahuen β-galactosidase-expressing trypomastigotes were added at a ratio of 1:10 cells to trypomastigotes for 2 hours. The medium was then replaced with fresh medium, and the cultures were incubated for 48 hours. Following this step, the medium was replaced with a solution of the test compound, diluted in dimethyl sulfoxide (DMSO, less than 1%), in RPMI1640 medium with concentrations ranging from 5 to 20 µM. […] Benznidazole was utilized as a positive control at 1 µg/mL (3.84 µM).
as §1, §2

The next series concerns U87MG lineage. Also on record: method as in earlier work. The note with it: human glioblastoma cells; cited from earlier work.
Series [3] relates to Trypanosoma cruzi Y strain. Nature of the series: In vivo rapid test, parasitemia in Swiss mice infected with T. cruzi Y strain. The note with it: for Reduction in parasitemia: oral gavage once daily for five days, doses of 10, 50, and 250 mg/kg/day; for Overall performance in vivo compared with BZ / Parasitemia compared to infected untreated animals / Parasitemia compared to the untreated group: oral; for Overall performance in vivo compared with BZ: BZ at 100 mg/kg; for Parasitemia compared to infected untreated animals: doses of 50 and 250 mg/kg/day; for Parasitemia compared to the untreated group: smallest dose 10 mg/kg/day. As for the experimental part: The in vivo assays were conducted at the Laboratório de Pesquisas Clínicas, Escola de Farmácia, Universidade Federal de Ouro Preto (UFOP), Minas Gerais State, Brazil, utilizing only compounds with a selectivity index (SI) exceeding 50 (Table 1).
Swiss female mice aged 28-30 days were obtained from the Centro de Ciência Animal of the Universidade Federal de Ouro Preto (UFOP), Minas Gerais State, Brazil. The animals were housed in a temperature range of 20-24 °C with a 12-hour light-dark cycle, and had ad libitum access to filtered water and commercial feed. The experimental procedures were approved by the institutional Comitê de Ética em Experimentação Animal (CEUA-UFOP), Minas Gerais State, Brazil, Protocol 2157041219.
The mice were intraperitoneally infected with 1x10^4 blood trypomastigotes of the T. cruzi Y strain obtained from mice maintained by successive blood passages (CEUA 2015/50). Infection was confirmed by fresh blood examination (FBE)[46] on the 4th day after infection, and treatment commenced. For the in vivo test, the highest concentration attainable when blending the test compounds in various orally safe vehicles was selected. Canola oil yielded the most favorable results. The compounds were diluted with canola oil to the highest possible concentration of 25 mg/mL. Subsequently, two different dilutions (5x) were prepared, resulting in doses of 250, 50, and 10 mg/kg/day. These doses were administered via oral gavage once daily (group n = 8). In parallel, a control group of mice remained infected and untreated (INT), while another group received treatment with the reference drug (BZ) at a dose of 100 mg/kg. The BZ tablets were crushed with 0.5% gum arabic, and suspended in distilled water.
To evaluate the effectiveness of the compounds in reducing parasitemia, FBE was conducted daily for five consecutive days, during which parasitemia was counted.

The mark [4] stands for this setting: top concentration limited by solubility (20 to 160 µg/mL).
Setting [5] is: Trypanosoma cruzi, TULAHUEN, L929, 96 h, read-out: IC50.
Setting [6] is: Trypanosoma cruzi, TULAHUEN, L929, 96 h, value in brackets, read-out: IC50.

Structures are written as SMILES. “Also recorded” adds a separate entry of the source. Read-outs that look alike come from different tables or passages of the source.

`O=C(Cn1ccnc1[N+](=O)[O-])NCc1ccccc1` [Benznidazole, reference compound]: it took 625 µg/mL to reach half-maximal cytotoxicity in series [1] (setting [4]) (CC50 at 96 h). For the same compound, the IC50 was determined as 1 µg/mL in series [2] (setting [5]) and 3.81 µM in series [2] (setting [6]).

Take `O=C1c2ccccc2C(=O)N1Cc1cn(-c2cc(C(F)(F)F)ccc2N2CCOCC2)nn1` [Compound 6A]: the “Cytotoxicity / cellular growth of U87MG lineage” value with U87MG lineage is recorded as “no perceived cytotoxicity”. For the same compound, the IC50 result in series [2] is listed as “Not active”.

Take `FC(F)(F)c1ccc(N2CCOCC2)c(-n2cc(COCc3ccc(Cl)cc3)nn2)c1` [Compound 6B]: the cytotoxic concentration (CC50) at 96 h worked out at 36.1 µg/mL in series [1] (setting [4]) and 79 µM in series [1] (value in brackets). Further, the “Selectivity index (SI)” value in series [2] was 15.7. Moreover, the IC50 in series [2] (setting [6]) stood at 5 µM.

On to `FC(F)(F)c1ccc(N2CCOCC2)c(-n2cc(COCc3ccc(Br)cc3)nn2)c1` [Compound 6C], for which the half-maximal cytotoxic concentration (CC50) at 96 h worked out at 80 µg/mL in series [1] (setting [4]) and 161 µM in series [1] (value in brackets). For the same compound, in series [2], the “Selectivity index (SI)” value worked out at 23.5. The IC50 in series [2] (setting [5]) is less than 5 µg/mL; in series [2] (setting [6]) it was 6.8 µM.

Turning to `COc1ccc(COCc2cn(-c3cc(C(F)(F)F)ccc3N3CCOCC3)nn2)cc1` [Compound 6D], the figures for the CC50 at 96 h in series [1] (setting [4]) and in series [1] (value in brackets) were greater than 20 µg/mL and greater than 47.6 µM, respectively. Besides, the “Selectivity index (SI)” value in series [2] was greater than 3.0. Further, the IC50 in series [2] (setting [5]) was 6.6 µg/mL; in series [2] (setting [6]) it was 15.7 µM.

On to `FC(F)(F)c1ccc(N2CCOCC2)c(-n2cc(COCc3ccccc3)nn2)c1` [Compound 6E], for which, in series [3], the Reduction in parasitemia result is “reduction in parasitemia; also recorded: effectively reduced”, the “Overall performance in vivo compared with BZ” value is reported as “inferior overall performance”, the “Parasitemia compared to infected untreated animals” value is on record as “significantly reduced” and the “Parasitemia compared to the untreated group” value is “did not markedly reduce parasitemia”. Also, the CC50 at 96 h in series [1] (setting [4]) came out at 62.6 µg/mL. In series [1] (value in brackets), this compound came in with a CC50 at 96 h of 160 µM. For the same compound, the “Selectivity index (SI)” value in series [2] amounted to 125.2. Besides, in series [2] (setting [5]), the IC50 was 0.5 µg/mL. Moreover, the IC50 in series [2] (setting [6]) came out at 1.3 µM.

In the case of `CCN(CC)c1ccc(C(F)(F)F)cc1-n1cc(COCc2ccc(Cl)cc2)nn1` [Compound 6F], the IC50 result in series [2] is recorded as “Not active”.

For the compound `FC(F)(F)c1ccc(N2CCCCC2)c(-n2cc(COCc3ccc(Cl)cc3)nn2)c1` [Compound 6G], the CC50 at 96 h in series [1] (setting [4]) was greater than 160 µg/mL; in series [1] (value in brackets), greater than 355 µM. For the same compound, the results for the IC50 in series [2] (setting [5]) and in series [2] (setting [6]) were less than 5 µg/mL and 10.4 µM, respectively.

Take `FC(F)(F)c1ccc(N2CCCCC2)c(-n2cc(COCc3ccc(Br)cc3)nn2)c1` [Compound 6H]: in series [3], the Reduction in parasitemia result was “reduction in parasitemia; also recorded: effectively reduced”, the “Overall performance in vivo compared with BZ” value is on record as “inferior overall performance”, the “Parasitemia compared to infected untreated animals” value is given as “significantly reduced” and the “Parasitemia compared to the untreated group” value was “did not markedly reduce parasitemia”. For the same compound, in series [1] (setting [4]), the CC50 at 96 h is greater than 160 µg/mL. The CC50 at 96 h in series [1] (value in brackets) was greater than 323 µM. For the same compound, the “Selectivity index (SI)” value in series [2] is greater than 69. Moreover, the IC50 in series [2] (setting [6]) came out at 4.6 µM.

For `O=C1c2ccccc2C(=O)N1Cc1cn(-c2cc(C(F)(F)F)ccc2N2CCCCC2)nn1` [Compound 6I], the IC50 result in series [2] is “Not active”.

Take `FC(F)(F)c1ccc(N2CCCCC2)c(-n2cc(COCc3ccccc3)nn2)c1` [Compound 6J]: the CC50 at 96 h in series [1] (setting [4]) was greater than 20 µg/mL; in series [1] (value in brackets), greater than 48 µM. For the same compound, the figures for the IC50 in series [2] (setting [5]) and in series [2] (setting [6]) were 6.5 µg/mL and 15.6 µM, respectively.

As to `COc1ccc(COCc2cn(-c3cc(C(F)(F)F)ccc3N3CCCCC3)nn2)cc1` [Compound 6K], the figures for the CC50 at 96 h in series [1] (setting [4]) and in series [1] (value in brackets) were greater than 20 µg/mL and greater than 45 µM, respectively. For the same compound, the results for the IC50 in series [2] (setting [5]) and in series [2] (setting [6]) were 10.5 µg/mL and 23.5 µM, respectively.

The values above are taken from PMC11290850, “Screening of synthetic 1,2,3-triazolic compounds inspired by SRPIN340 as anti-Trypanosoma cruzi agents” (Revista da Sociedade Brasileira de Medicina Tropical, 2024).
